Legend:
Assay in all cases: relative viability (nuclei count vs DMSO), 5 days (fraction); higher = more cells survive
[1] = compound: CC1=CC(=CC=C1)NC2=NC(=CS2)C3=CC=NC=C3 + C[C@@H](Oc1cc(-c2cnn(C3CCNCC3)c2)cnc1N)c1c(Cl)ccc(F)c1Cl [Crizotinib] (partner 1 µM)
In short: (§1)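 Medians of duplicate plates are given as relative viability. That measure is the nuclei count in treated wells divided by the count in vehicle wells. Counts were taken on 4× images of lung cancer cell lines in 1536-well plates, 5 days after pin-tool dosing the day after seeding with one drug alone or a fixed anchor-drug dose plus five library-drug doses (not always all listed) in √10 steps.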

[2] = compound: CC1=CC(=CC=C1)NC2=NC(=CS2)C3=CC=NC=C3 + Nc1ncn([C@H]2C[C@H](O)[C@@H](CO)O2)c(=O)n1 [Decitabine] (partner 2 µM)
In short: as §1

Masitinib + Tozasertib = compound: Cc1ccc(NC(=O)c2ccc(CN3CCN(C)CC3)cc2)cc1Nc1nc(-c2cccnc2)cs1 [Masitinib] + Cc1cc(Nc2cc(N3CCN(C)CC3)nc(Sc3ccc(NC(=O)C4CC4)cc3)n2)n[nH]1 [Tozasertib] (partner 0.1 µM)
In short: as §1

Masitinib + Vorinostat = compound: Cc1ccc(NC(=O)c2ccc(CN3CCN(C)CC3)cc2)cc1Nc1nc(-c2cccnc2)cs1 [Masitinib] + O=C(CCCCCCC(=O)Nc1ccccc1)NO [Vorinostat] (partner 1 µM)
In short: as §1

LU99A
relative viability ([1]; first compound 0.253 µM): 0.546
relative viability ([1]; first compound 0.8 µM): 0.717
relative viability ([1]; first compound 2.53 µM): 0.52
relative viability ([1]; first compound 8 µM): 0.718
relative viability ([2]; first compound 0.08 µM): 0.889
relative viability ([2]; first compound 0.253 µM): 0.939
relative viability ([2]; first compound 0.8 µM): 0.787
relative viability ([2]; first compound 2.53 µM): 0.709
relative viability ([2]; first compound 8 µM): 0.879
relative viability (Masitinib + Tozasertib; first compound 0.01 µM): 0.289
relative viability (Masitinib + Tozasertib; first compound 0.03162 µM): 0.221
relative viability (Masitinib + Tozasertib; first compound 0.1 µM): 0.282
relative viability (Masitinib + Tozasertib; first compound 0.3162 µM): 0.269
relative viability (Masitinib + Tozasertib; first compound 1 µM): 0.257
relative viability (Masitinib + Vorinostat; first compound 0.01 µM): 0.455
relative viability (Masitinib + Vorinostat; first compound 0.03162 µM): 0.433
relative viability (Masitinib + Vorinostat; first compound 0.1 µM): 0.492
relative viability (Masitinib + Vorinostat; first compound 0.3162 µM): 0.534
relative viability (Masitinib + Vorinostat; first compound 1 µM): 0.467

LXF-289
relative viability ([1]; first compound 0.08 µM): 0.775
relative viability ([1]; first compound 0.253 µM): 0.785
relative viability ([1]; first compound 0.8 µM): 0.827
relative viability ([1]; first compound 2.53 µM): 0.836
relative viability ([1]; first compound 8 µM): 0.751
relative viability ([2]; first compound 0.08 µM): 0.353
relative viability ([2]; first compound 0.253 µM): 0.383
relative viability ([2]; first compound 0.8 µM): 0.391
relative viability ([2]; first compound 2.53 µM): 0.375
relative viability ([2]; first compound 8 µM): 0.363
relative viability (Masitinib + Tozasertib; first compound 0.01 µM): 0.214
relative viability (Masitinib + Tozasertib; first compound 0.03162 µM): 0.174
relative viability (Masitinib + Tozasertib; first compound 0.1 µM): 0.2
relative viability (Masitinib + Tozasertib; first compound 0.3162 µM): 0.232
relative viability (Masitinib + Tozasertib; first compound 1 µM): 0.177
relative viability (Masitinib + Vorinostat; first compound 0.01 µM): 0.646
relative viability (Masitinib + Vorinostat; first compound 0.03162 µM): 0.818
relative viability (Masitinib + Vorinostat; first compound 0.1 µM): 0.65
relative viability (Masitinib + Vorinostat; first compound 0.3162 µM): 0.854
relative viability (Masitinib + Vorinostat; first compound 1 µM): 0.743

NCI-H1437
relative viability ([1]; first compound 0.08 µM): 0.938
relative viability ([1]; first compound 0.253 µM): 1.03
relative viability ([1]; first compound 0.8 µM): 0.91
relative viability ([1]; first compound 2.53 µM): 1.06
relative viability ([1]; first compound 8 µM): 0.926
relative viability ([2]; first compound 0.08 µM): 0.593
relative viability ([2]; first compound 0.253 µM): 0.521
relative viability ([2]; first compound 0.8 µM): 0.742
relative viability ([2]; first compound 2.53 µM): 0.384
relative viability ([2]; first compound 8 µM): 0.48
relative viability (Masitinib + Tozasertib; first compound 0.01 µM): 0.399
relative viability (Masitinib + Tozasertib; first compound 0.03162 µM): 0.454
relative viability (Masitinib + Tozasertib; first compound 0.1 µM): 0.4
relative viability (Masitinib + Tozasertib; first compound 0.3162 µM): 0.426
relative viability (Masitinib + Tozasertib; first compound 1 µM): 0.36
relative viability (Masitinib + Vorinostat; first compound 0.01 µM): 0.798
relative viability (Masitinib + Vorinostat; first compound 0.03162 µM): 0.799
relative viability (Masitinib + Vorinostat; first compound 0.1 µM): 0.932
relative viability (Masitinib + Vorinostat; first compound 0.3162 µM): 0.789
relative viability (Masitinib + Vorinostat; first compound 1 µM): 0.75

HCC-78
relative viability ([1]; first compound 0.08 µM): 0.324
relative viability ([1]; first compound 0.253 µM): 0.312
relative viability ([1]; first compound 0.8 µM): 0.311
relative viability ([1]; first compound 2.53 µM): 0.333
relative viability ([1]; first compound 8 µM): 0.346
relative viability ([2]; first compound 0.08 µM): 0.727
relative viability ([2]; first compound 0.253 µM): 0.613
relative viability ([2]; first compound 0.8 µM): 0.614
relative viability ([2]; first compound 2.53 µM): 0.613
relative viability ([2]; first compound 8 µM): 0.661
relative viability (Masitinib + Tozasertib; first compound 0.01 µM): 0.338
relative viability (Masitinib + Tozasertib; first compound 0.03162 µM): 0.446
relative viability (Masitinib + Tozasertib; first compound 0.1 µM): 0.423
relative viability (Masitinib + Tozasertib; first compound 0.3162 µM): 0.447
relative viability (Masitinib + Tozasertib; first compound 1 µM): 0.454
relative viability (Masitinib + Vorinostat; first compound 0.01 µM): 0.485
relative viability (Masitinib + Vorinostat; first compound 0.03162 µM): 0.435
relative viability (Masitinib + Vorinostat; first compound 0.1 µM): 0.468
relative viability (Masitinib + Vorinostat; first compound 0.3162 µM): 0.47
relative viability (Masitinib + Vorinostat; first compound 1 µM): 0.388

NCI-H1650
relative viability ([1]; first compound 0.08 µM): 0.946
relative viability ([1]; first compound 0.253 µM): 0.728
relative viability ([1]; first compound 0.8 µM): 0.83
relative viability ([1]; first compound 2.53 µM): 0.919
relative viability ([1]; first compound 8 µM): 1.03
relative viability ([2]; first compound 0.08 µM): 0.384
relative viability ([2]; first compound 0.253 µM): 0.38
relative viability ([2]; first compound 0.8 µM): 0.478
relative viability ([2]; first compound 2.53 µM): 0.408
relative viability ([2]; first compound 8 µM): 0.378
relative viability (Masitinib + Tozasertib; first compound 0.01 µM): 0.346
relative viability (Masitinib + Tozasertib; first compound 0.03162 µM): 0.329
relative viability (Masitinib + Tozasertib; first compound 0.1 µM): 0.297
relative viability (Masitinib + Tozasertib; first compound 0.3162 µM): 0.326
relative viability (Masitinib + Tozasertib; first compound 1 µM): 0.23
relative viability (Masitinib + Vorinostat; first compound 0.01 µM): 0.492
relative viability (Masitinib + Vorinostat; first compound 0.03162 µM): 0.402
relative viability (Masitinib + Vorinostat; first compound 0.1 µM): 0.549
relative viability (Masitinib + Vorinostat; first compound 0.3162 µM): 0.437
relative viability (Masitinib + Vorinostat; first compound 1 µM): 0.512

HCC-15
relative viability ([1]; first compound 0.08 µM): 0.826
relative viability ([1]; first compound 0.253 µM): 0.807
relative viability ([1]; first compound 0.8 µM): 0.777
relative viability ([1]; first compound 2.53 µM): 0.833
relative viability ([1]; first compound 8 µM): 0.79
relative viability ([2]; first compound 0.08 µM): 0.621
relative viability ([2]; first compound 0.253 µM): 0.662
relative viability ([2]; first compound 0.8 µM): 0.58
relative viability ([2]; first compound 2.53 µM): 0.582
relative viability ([2]; first compound 8 µM): 0.625
relative viability (Masitinib + Tozasertib; first compound 0.01 µM): 0.491
relative viability (Masitinib + Tozasertib; first compound 0.03162 µM): 0.426
relative viability (Masitinib + Tozasertib; first compound 0.1 µM): 0.433
relative viability (Masitinib + Tozasertib; first compound 0.3162 µM): 0.387
relative viability (Masitinib + Tozasertib; first compound 1 µM): 0.243
relative viability (Masitinib + Vorinostat; first compound 0.01 µM): 0.789
relative viability (Masitinib + Vorinostat; first compound 0.03162 µM): 0.814
relative viability (Masitinib + Vorinostat; first compound 0.1 µM): 0.868
relative viability (Masitinib + Vorinostat; first compound 0.3162 µM): 0.827
relative viability (Masitinib + Vorinostat; first compound 1 µM): 0.811

EKVX
relative viability ([1]; first compound 0.08 µM): 0.907
relative viability ([1]; first compound 0.253 µM): 0.893
relative viability ([1]; first compound 0.8 µM): 0.795
relative viability ([1]; first compound 2.53 µM): 0.801
relative viability ([1]; first compound 8 µM): 0.497
relative viability ([2]; first compound 0.08 µM): 0.289
relative viability ([2]; first compound 0.253 µM): 0.397
relative viability ([2]; first compound 2.53 µM): 0.356
relative viability ([2]; first compound 8 µM): 0.316
relative viability (Masitinib + Tozasertib; first compound 0.03162 µM): 0.409
relative viability (Masitinib + Tozasertib; first compound 0.1 µM): 0.405
relative viability (Masitinib + Tozasertib; first compound 0.3162 µM): 0.443
relative viability (Masitinib + Tozasertib; first compound 1 µM): 0.333
relative viability (Masitinib + Vorinostat; first compound 0.01 µM): 0.626
relative viability (Masitinib + Vorinostat; first compound 0.03162 µM): 0.653
relative viability (Masitinib + Vorinostat; first compound 0.1 µM): 0.643
relative viability (Masitinib + Vorinostat; first compound 0.3162 µM): 0.678
relative viability (Masitinib + Vorinostat; first compound 1 µM): 0.696

NCI-H2126
relative viability ([1]; first compound 0.08 µM): 0.975
relative viability ([1]; first compound 0.253 µM): 1.01
relative viability ([1]; first compound 0.8 µM): 1
relative viability ([1]; first compound 2.53 µM): 0.983
relative viability ([1]; first compound 8 µM): 0.846
relative viability ([2]; first compound 0.08 µM): 0.525
relative viability ([2]; first compound 0.253 µM): 0.56
relative viability ([2]; first compound 0.8 µM): 0.559
relative viability ([2]; first compound 2.53 µM): 0.572
relative viability ([2]; first compound 8 µM): 0.578
relative viability (Masitinib + Tozasertib; first compound 0.01 µM): 0.938
relative viability (Masitinib + Tozasertib; first compound 0.03162 µM): 0.819
relative viability (Masitinib + Tozasertib; first compound 0.1 µM): 0.926
relative viability (Masitinib + Tozasertib; first compound 0.3162 µM): 0.627
relative viability (Masitinib + Tozasertib; first compound 1 µM): 0.828
relative viability (Masitinib + Vorinostat; first compound 0.01 µM): 0.736
relative viability (Masitinib + Vorinostat; first compound 0.03162 µM): 0.764
relative viability (Masitinib + Vorinostat; first compound 0.1 µM): 0.8
relative viability (Masitinib + Vorinostat; first compound 0.3162 µM): 0.798
relative viability (Masitinib + Vorinostat; first compound 1 µM): 0.79

From the supplement of paper PMC10307832
